According to US4786627A, “Thiadiazole guanidines” (Reckitt & Colman Products Limited, priority 1987, dated 1988):
Read-outs that look alike come from different tables or passages of the source.

How the values were obtained:
[1] = tested on: maximal metrazol seizures (MMS); experiment: metrazol antagonism test, maximal metrazol seizures (MMS), inhibition of hind limb tonus, mouse; type: in vivo; conditions: read-out: Inhibition of Hind Limb Tonus ED50 (limits), MOUSE MMS
Experimental: (§1) The pharmacological activity of the compounds of the invention have been determined according to the following procedures. Their anticonvulsant activity was determined in the metrazol antagonism test in mice (MMS) (Soaje-Echaque E; Lim RKS, J Pharmac Exp Ther 1962, 138, 224; Desmedt LKC; Niemegeers CJE; Lewi PJ; Janssen PAJ, Arzneim-Forsch (Drug Res), 1976, 26, 1592) and the electroshock test in mice (MES)(Tulloch IF; Walter DS; Howe GM; Howe SJ, Neuropharmacology 1982, 21, 555).

[2] = tested on: maximal electroshock seizures (MES); experiment: electroshock test, maximal electroshock seizures (MES), inhibition of hind limb tonus, mouse; type: in vivo; conditions: read-out: Inhibition of Hind Limb Tonus ED50 (limits), MOUSE MES
Experimental: as §1

[3] = tested on: maximal electroshock seizures (MES); experiment: electroshock test, maximal electroshock seizures (MES), inhibition of hind limb tonus, rat; type: in vivo; conditions: read-out: Inhibition of Hind Limb Tonus ED50 (limits), RAT MES
[4] = tested on: trained animals fall off the rotorod; experiment: neurotoxicity, rotorod test, mouse; type: in vivo, mice; conditions: oral, rotorod
From the text: (§2) ^(a) Dose at which 50% of trained animals fall off the rotorod

[5] = neurotoxicity, rotorod test, mouse; type: in vivo, mice; conditions: in vivo, po
From the text: as §2

[6] = tested on: electrically and chemically induced seizures; experiment: anticonvulsant activity in animal tests (electrically and chemically induced seizures); type: in vivo; conditions: rat and mouse, oral
Experimental: as §1

[7] = mouse, MMS, oral, t=1 hour, limits in parentheses
[8] = mouse, MES, oral, t=1 hour, limits in parentheses
[9] = rat, MES, oral, t=1 hour, limits in parentheses

SMILES | ED50 [1, 7] [mg/kg] | ED50 [2, 8] [mg/kg] | ED50 [3, 9] [mg/kg] | level of neurotoxicity (in words) [4] | TD50 at 1 h [5] [mg/kg] | anticonvulsant activity (in words) [6] | ED50 ([1]; Mus musculus, po, 1 h) [mg/kg] | ED50 ([2]; Mus musculus, po, 1 h) [mg/kg] | ED50 ([3]; Rattus norvegicus, po, 1 h) [mg/kg]
O=C1NC(=O)C(c2ccccc2)(c2ccccc2)N1 [phenytoin] | 8 | 8 | 14 |  |  |  |  |  | 
C/N=C(\N)Nc1nnc(-c2ccccc2C(F)(F)F)s1 [Example 2, 2-(3-Methylguanidino)-5-[2-(trifluoromethyl)phenyl]-1,3,4-thiadiazole] | 44 | 49 |  | acceptable level | > 400 |  |  |  | 
Cl.N=C(N)Nc1nnc(-c2ccccc2C(F)(F)F)s1 [Example 1, 2-Guanidino-5-[2-(trifluoromethyl)phenyl]-1,3,4-thiadiazole hydrochloride] | 45 | 27 | 22 | acceptable level | 324 | potent anticonvulsants blocking both electrically and chemically induced seizures |  |  | 
NC(=O)N1c2ccccc2C=Cc2ccccc21 [carbamazepine] | 11 | 20 | 4 |  |  |  |  |  | 
CCC1(c2ccccc2)C(=O)NC(=O)NC1=O [phenobarbital] |  |  |  |  |  |  | 4 | 12 | 9
